Tested on: not given
Assay: not given
Conditions: kidneys; cited from earlier work

Row | SMILES | reduction of the excretion of albumin in diabetics
1 | N=C(N)NN [Aminoguanidine] | 90%

Target: bovine serum albumin (BSA) (Bos taurus, UniProt P02769)
Assay: Inhibition of the formation of AGEs in a BSA/reducing sugar solution, measured by fluorescence
Format: biochemical
Conditions: Example 4, comparison with anthocyanins of the prior art; fluorescence versus positive control 1.5 mM aminoguanidine; quenching taken into account
Description: The preparation of a solution containing a protein and a reducing sugar was carried out extemporaneously as follows: a solution of bovine serum albumin (BSA) at a concentration between 1.5 μM and 1.5M, preferably between 15 μM and 500 μM, was incubated with a solution of a reducing sugar such as glucose, fructose, ribose, etc., preferably with glucose, at a concentration between 0.1M and 10M, preferably between 0.5M and 5M. […]
The protein/reducing sugar solution prepared in 1 was incubated with or without (negative control) the presence of an extract obtained in 2, at a temperature between 40 and 60° C., preferably at around 50° C. for 1 to 5 weeks, preferably for 3 weeks. The active substances obtained by extraction according to the protocol described in paragraph 2—extracts were tested at a concentration between 0.001 and 10%, preferably between 0.01 and 5% and more particularly at 1% by weight in the protein/reducing sugar preparation. The positive control used was aminoguanidine at a concentration between 15 μM and 150 mM, preferably at a concentration between 1.5 mM and 15 mM in water. The measure of the inhibition of the AGEs was carried out by measuring the fluorescence (excitation wavelength between 350 and 375 nm, preferably at 355 nm; emission wavelength between 420 and 450 nm, preferably at 430 nm). The inhibition was calculated by deducing the resulting value of the interaction of the plant extracts with the molecules of the reaction medium (quenching).
The preparation of a protein/reducing sugar solution was carried out according to the method described in Example 1 (paragraph 1). The molecules were tested at a concentration between 1×10^−7 and 1×10^−1%, and preferably between 1×10^−5 and 1×10^−1%, and in particular at 1×10^−1%, for example in water or in DMSO.

bovine serum albumin (BSA), sequence (P02769 25-607): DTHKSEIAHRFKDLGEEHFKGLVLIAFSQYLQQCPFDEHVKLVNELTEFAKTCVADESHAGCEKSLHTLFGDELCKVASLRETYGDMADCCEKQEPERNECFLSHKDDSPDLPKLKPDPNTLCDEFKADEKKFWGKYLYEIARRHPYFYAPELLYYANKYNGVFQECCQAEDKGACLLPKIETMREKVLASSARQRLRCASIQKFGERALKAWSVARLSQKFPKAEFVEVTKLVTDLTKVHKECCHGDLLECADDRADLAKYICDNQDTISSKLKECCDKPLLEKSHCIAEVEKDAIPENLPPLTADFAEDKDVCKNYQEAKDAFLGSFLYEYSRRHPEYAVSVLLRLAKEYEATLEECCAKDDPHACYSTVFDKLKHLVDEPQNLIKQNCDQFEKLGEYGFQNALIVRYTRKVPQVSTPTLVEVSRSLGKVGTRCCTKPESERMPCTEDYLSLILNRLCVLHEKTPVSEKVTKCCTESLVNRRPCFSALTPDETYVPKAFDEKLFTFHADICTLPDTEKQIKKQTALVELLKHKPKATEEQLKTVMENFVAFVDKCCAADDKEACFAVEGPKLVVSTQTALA

Row | % inhibition | SMILES
2 | 0% | OC[C@H]1O[C@@H](Oc2cc3c(O)cc(O)cc3[o+]c2-c2ccc(O)c(O)c2)[C@H](O)[C@@H](O)[C@@H]1O.[Cl-] [Kuromanin Chloride, reference compound]
3 | 0% | COc1cc(-c2[o+]c3cc(O)cc(O[C@@H]4O[C@H](CO)[C@@H](O)[C@H](O)[C@H]4O)c3cc2O[C@@H]2O[C@H](CO)[C@@H](O)[C@H](O)[C@H]2O)cc(OC)c1O.[Cl-] [Malvin Chloride, reference compound]
4 | 0% | OC[C@H]1O[C@@H](Oc2cc3c(O)cc(O)cc3[o+]c2-c2ccc(O)c(O)c2)[C@H](O)[C@@H](O)[C@H]1O.[Cl-] [Idaein chloride, reference compound]
5 | 0% | OC[C@H]1O[C@@H](Oc2cc3c(O[C@@H]4O[C@H](CO)[C@@H](O)[C@H](O)[C@H]4O)cc(O)cc3[o+]c2-c2ccc(O)cc2)[C@H](O)[C@@H](O)[C@@H]1O.[Cl-] [Perlargonin chloride, reference compound]

Same assay, conditions: characterized molecules, in particular at 1×10^−1% in water or DMSO; BSA/reducing sugar; fluorescence versus positive control 1.5 mM aminoguanidine

Row | % inhibition | SMILES
6 | 88.3% | Oc1ccccc1O [Catechol]
7 | 81.4% | O=C(/C=C/c1ccc(O)cc1)c1ccccc1 [4-Hydroxychalcone]
8 | 66.0% | Nc1c(CO)ccc2c1C(=O)c1ccccc1C2=O [1-Amino-2-hydroxymethylanthraquinone]
9 | 89.6% | O=C1C=CC(=O)c2cc3ccccc3cc21 [1,4-Anthraquinone]
10 | 67.9% | O=C1C[C@@H](c2ccc(O)cc2)Oc2cc(O[C@@H]3O[C@H](CO)[C@@H](O)[C@H](O)[C@H]3O)cc(O)c21 [Prunin]

Row | SMILES | % inhibition
11 | O=C([O-])c1ccccc1-c1c2cc(I)c(=O)c(I)c-2oc2c(I)c([O-])c(I)cc12.[Na+].[Na+] [Sodium erythrosine] | 95.6%
12 | Nc1ccc(O)cc1 [4-Aminophenol] | 78.5%

From US20100316743A1, “INHIBITION OF THE FORMATION OF AGEs” (BASF BEAUTY CARE SOLUTIONS FRANCE S.A.S., priority 2007, published 2010)
